In PubChem BioAssay AID1963985 (Molecular Pharmacology Branch, DTP, NCI, 2024):

Tested on: 252836-082-R-J2-PDC tumor spheroids, viability
Assay: Anticancer human tumor 252836-082-R-J2-PDC patient-derived head and neck squamous cell carcinoma cell line growth inhibition [PI3K]
Settings: spheroids with HUVEC and MSC; for viability, T/C: stronger effect = lower value
Outline: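 Agents were dosed from a top concentration near clinical Cmax (otherwise 10 microM) in half-log decrements, alone or combined with PI3K inhibitors. The spheroids contain tumor cells plus endothelial (HUVEC) and MSC stroma; viability is measured.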

[1] = curve of first compound, second compound 0.0316 µM
[2] = curve of first compound, second compound 0.1 µM
[3] = curve of first compound, second compound 0.316 µM
[4] = curve of first compound, second compound 1 µM
[5] = second compound 0.0316 µM, first compound 0.0316 µM
[6] = second compound 0.0316 µM, first compound 0.1 µM
[7] = second compound 0.1 µM, first compound 0.0316 µM
[8] = second compound 0.1 µM, first compound 0.1 µM
[9] = second compound 0.316 µM, first compound 0.0316 µM
[10] = second compound 0.316 µM, first compound 0.1 µM
[11] = second compound 1 µM, first compound 0.0316 µM
[12] = second compound 1 µM, first compound 0.1 µM
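Note: spheroids exposed to agents for seven days before readout.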
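Throughout, for viability, T/C: percent of vehicle DMSO control viability so 100% = untreated growth.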

Q: For `C#Cc1c(F)ccc2cc(O)cc(-c3ncc4c(N5CC6CCC(C5)N6)nc(OCC56CCCN5CC(F)C6)nc4c3F)c12` (stereo unspecified) + Cc1nc(NC(=O)N2CCCC2C(N)=O)sc1-c1ccnc(C(C)(C)C(F)(F)F)c1, which IC50 [1] is on record?
A: The IC50 was greater than 10 µM.

Q: And the IC50 [2]?
A: The IC50 was greater than 10 µM.

Q: What about the IC50 [3] of the same molecule?
A: Its IC50 is greater than 10 µM.

Q: What about the IC50 [4] of the same molecule?
A: Its IC50 is 4.45 µM.

Q: What about the IC50 (curve of first compound, second compound 3.16 µM) of the same molecule?
A: Its IC50 is less than 0.0316 µM.

Q: What about the IC50 (curve of first compound, second compound 10 µM) of the same molecule?
A: The IC50 was less than 0.0316 µM.

Q: And the viability, T/C [5]?
A: Its viability, T/C is 96.4%.

Q: What about the viability, T/C [6] of the same molecule?
A: The viability, T/C was 82.3%.

Q: What about the viability, T/C (second compound 0.0316 µM, first compound 0.316 µM) of the same molecule?
A: The viability, T/C was 98.8%.

Q: What about the viability, T/C (second compound 0.0316 µM, first compound 1 µM) of the same molecule?
A: The viability, T/C was 76.5%.

Q: What about the viability, T/C (second compound 0.0316 µM, first compound 3.16 µM) of the same molecule?
A: The viability, T/C was 72.2%.

Q: And the viability, T/C (second compound 0.0316 µM, first compound 10 µM)?
A: Its viability, T/C is 69.2%.

Q: And the viability, T/C [7]?
A: The viability, T/C was 92.4%.

Q: And the viability, T/C [8]?
A: Its viability, T/C is 78.4%.

Q: And the viability, T/C (second compound 0.1 µM, first compound 0.316 µM)?
A: The viability, T/C was 76.9%.

Q: And the viability, T/C (second compound 0.1 µM, first compound 1 µM)?
A: The viability, T/C was 78%.

Q: What about the viability, T/C (second compound 0.1 µM, first compound 3.16 µM) of the same molecule?
A: The viability, T/C was 63.6%.

Q: What about the viability, T/C (second compound 0.1 µM, first compound 10 µM) of the same molecule?
A: The viability, T/C was 67.4%.

Q: And the viability, T/C [9]?
A: The viability, T/C was 70.2%.

Q: And the viability, T/C [10]?
A: The viability, T/C was 64.7%.

Q: What about the viability, T/C (second compound 0.316 µM, first compound 0.316 µM) of the same molecule?
A: Its viability, T/C is 71.1%.

Q: What about the viability, T/C (second compound 0.316 µM, first compound 1 µM) of the same molecule?
A: Its viability, T/C is 58.4%.

Q: What about the viability, T/C (second compound 0.316 µM, first compound 3.16 µM) of the same molecule?
A: Its viability, T/C is 60.8%.

Q: And the viability, T/C (second compound 0.316 µM, first compound 10 µM)?
A: Its viability, T/C is 53.5%.

Q: And the viability, T/C [11]?
A: The viability, T/C was 54.4%.

Q: And the viability, T/C [12]?
A: The viability, T/C was 54.9%.

Q: And the viability, T/C (second compound 1 µM, first compound 0.316 µM)?
A: The viability, T/C was 53.9%.

Q: What about the viability, T/C (second compound 1 µM, first compound 1 µM) of the same molecule?
A: Its viability, T/C is 60.4%.

Q: What about the viability, T/C (second compound 1 µM, first compound 3.16 µM) of the same molecule?
A: Its viability, T/C is 54.9%.

Q: And the viability, T/C (second compound 1 µM, first compound 10 µM)?
A: Its viability, T/C is 37.7%.

Q: And the viability, T/C (second compound 3.16 µM, first compound 0.0316 µM)?
A: Its viability, T/C is 41.9%.

Q: And the viability, T/C (second compound 3.16 µM, first compound 0.1 µM)?
A: The viability, T/C was 40.6%.

Q: What about the viability, T/C (second compound 3.16 µM, first compound 0.316 µM) of the same molecule?
A: Its viability, T/C is 44.5%.

Q: And the viability, T/C (second compound 3.16 µM, first compound 1 µM)?
A: Its viability, T/C is 40.9%.

Q: And the viability, T/C (second compound 3.16 µM, first compound 3.16 µM)?
A: The viability, T/C was 39.7%.

Q: And the viability, T/C (second compound 3.16 µM, first compound 10 µM)?
A: The viability, T/C was 22%.

Q: What about the viability, T/C (second compound 10 µM, first compound 0.0316 µM) of the same molecule?
A: The viability, T/C was 36.3%.

Q: What about the viability, T/C (second compound 10 µM, first compound 0.1 µM) of the same molecule?
A: Its viability, T/C is 35.2%.

Q: What about the viability, T/C (second compound 10 µM, first compound 0.316 µM) of the same molecule?
A: Its viability, T/C is 31.5%.

Q: What about the viability, T/C (second compound 10 µM, first compound 1 µM) of the same molecule?
A: The viability, T/C was 25%.

Q: And the viability, T/C (second compound 10 µM, first compound 3.16 µM)?
A: The viability, T/C was 25.7%.

Q: What about the viability, T/C (second compound 10 µM, first compound 10 µM) of the same molecule?
A: The viability, T/C was 9.29%.

Q: For `Cn1nccc1Nc1nccc(-c2ccn(C(CO)c3ccc(Cl)c(F)c3)c(=O)c2)n1` (stereo unspecified), which viability, T/C (compound 0.0316 µM) is on record?
A: Its viability, T/C is 95.5% [middle of 4 runs].

Q: What about the viability, T/C (compound 0.1 µM) of the same molecule?
A: Its viability, T/C is 100% [middle of 4 runs].

Q: And the viability, T/C (compound 0.316 µM)?
A: The viability, T/C was 96.9% [middle of 4 runs].

Q: What about the viability, T/C (compound 1 µM) of the same molecule?
A: The viability, T/C was 96.5% [middle of 4 runs].

Q: And the viability, T/C (compound 3.16 µM)?
A: The viability, T/C was 85.2% [middle of 4 runs].

Q: What about the viability, T/C (compound 10 µM) of the same molecule?
A: Its viability, T/C is 74.2% [middle of 4 runs].

Q: What about the IC50 (curve of compound) of the same molecule?
A: The IC50 was greater than 10 µM.

Q: With `CC(=O)c1c(C)c2cnc(Nc3ccc(N4CCNCC4)cn3)nc2n(C2CCCC2)c1=O` + COc1c(OCCCN2CCOCC2)ccc2c3n(c(=NC(=O)c4cnc(N)nc4)nc12)CCN3 as the molecule, how does the IC50 (curve of first compound, second compound 0.00316 µM) read?
A: Its IC50 is greater than 0.1 µM.

Q: What about the IC50 (curve of first compound, second compound 0.01 µM) of the same molecule?
A: The IC50 was greater than 0.1 µM.

Q: And the IC50 [1]?
A: The IC50 was greater than 0.1 µM.

Q: And the IC50 [2]?
A: The IC50 was less than 0.000316 µM.

Q: And the IC50 [3]?
A: The IC50 was less than 0.000316 µM.

Q: And the IC50 [4]?
A: The IC50 was less than 0.000316 µM.

Q: And the viability, T/C (second compound 0.00316 µM, first compound 0.000316 µM)?
A: The viability, T/C was 95%.

Q: And the viability, T/C (second compound 0.00316 µM, first compound 0.001 µM)?
A: Its viability, T/C is 93.1%.

Q: What about the viability, T/C (second compound 0.00316 µM, first compound 0.00316 µM) of the same molecule?
A: Its viability, T/C is 85.6%.

Q: What about the viability, T/C (second compound 0.00316 µM, first compound 0.01 µM) of the same molecule?
A: Its viability, T/C is 96.3%.

Q: And the viability, T/C (second compound 0.00316 µM, first compound 0.0316 µM)?
A: Its viability, T/C is 87.8%.

Q: What about the viability, T/C (second compound 0.00316 µM, first compound 0.1 µM) of the same molecule?
A: Its viability, T/C is 99%.

Q: And the viability, T/C (second compound 0.01 µM, first compound 0.000316 µM)?
A: The viability, T/C was 84.7%.

Q: And the viability, T/C (second compound 0.01 µM, first compound 0.001 µM)?
A: The viability, T/C was 81.4%.

Q: And the viability, T/C (second compound 0.01 µM, first compound 0.00316 µM)?
A: The viability, T/C was 78.5%.

Q: And the viability, T/C (second compound 0.01 µM, first compound 0.01 µM)?
A: Its viability, T/C is 84.3%.

Q: What about the viability, T/C (second compound 0.01 µM, first compound 0.0316 µM) of the same molecule?
A: Its viability, T/C is 81.1%.

Q: What about the viability, T/C (second compound 0.01 µM, first compound 0.1 µM) of the same molecule?
A: Its viability, T/C is 83.7%.

Q: What about the viability, T/C (second compound 0.0316 µM, first compound 0.000316 µM) of the same molecule?
A: The viability, T/C was 69.5%.

Q: And the viability, T/C (second compound 0.0316 µM, first compound 0.001 µM)?
A: Its viability, T/C is 60.9%.

Q: And the viability, T/C (second compound 0.0316 µM, first compound 0.00316 µM)?
A: Its viability, T/C is 66.9%.

Q: What about the viability, T/C (second compound 0.0316 µM, first compound 0.01 µM) of the same molecule?
A: The viability, T/C was 56.5%.

Q: What about the viability, T/C [5] of the same molecule?
A: The viability, T/C was 64%.

Q: And the viability, T/C [6]?
A: The viability, T/C was 62.6%.

Q: What about the viability, T/C (second compound 0.1 µM, first compound 0.000316 µM) of the same molecule?
A: Its viability, T/C is 37.1%.

Q: And the viability, T/C (second compound 0.1 µM, first compound 0.001 µM)?
A: Its viability, T/C is 41.2%.

Q: And the viability, T/C (second compound 0.1 µM, first compound 0.00316 µM)?
A: Its viability, T/C is 37.8%.

Q: And the viability, T/C (second compound 0.1 µM, first compound 0.01 µM)?
A: The viability, T/C was 45.5%.

Q: What about the viability, T/C [7] of the same molecule?
A: Its viability, T/C is 41.7%.

Q: What about the viability, T/C [8] of the same molecule?
A: Its viability, T/C is 37.5%.

Q: What about the viability, T/C (second compound 0.316 µM, first compound 0.000316 µM) of the same molecule?
A: Its viability, T/C is 18.2%.

Q: What about the viability, T/C (second compound 0.316 µM, first compound 0.001 µM) of the same molecule?
A: The viability, T/C was 21.1%.

Q: What about the viability, T/C (second compound 0.316 µM, first compound 0.00316 µM) of the same molecule?
A: The viability, T/C was 20.6%.

Q: And the viability, T/C (second compound 0.316 µM, first compound 0.01 µM)?
A: Its viability, T/C is 18.7%.

Q: And the viability, T/C [9]?
A: Its viability, T/C is 21.8%.

Q: What about the viability, T/C [10] of the same molecule?
A: The viability, T/C was 16.6%.

Q: And the viability, T/C (second compound 1 µM, first compound 0.000316 µM)?
A: The viability, T/C was 4.69%.

Q: And the viability, T/C (second compound 1 µM, first compound 0.001 µM)?
A: The viability, T/C was 5.36%.

Q: What about the viability, T/C (second compound 1 µM, first compound 0.00316 µM) of the same molecule?
A: The viability, T/C was 5.54%.

Q: What about the viability, T/C (second compound 1 µM, first compound 0.01 µM) of the same molecule?
A: Its viability, T/C is 5.58%.

Q: And the viability, T/C [11]?
A: The viability, T/C was 6.27%.

Q: And the viability, T/C [12]?
A: The viability, T/C was 4.95%.
